# Assay results published in ChEMBL document CHEMBL4414590, “Discovery of SIAIS178 as an Effective BCR-ABL Degrader by Recruiting Von Hippel-Lindau (VHL) E3 Ubiquitin Ligase” (J Med Chem, 2019).
# The source made the active and inactive calls. The rule behind the calls is not given here.
# Key:
# [1] = molecular target: T1, Bcr/Abl fusion protein (Homo sapiens) (UniProt P00519+P11274); experiment: Inhibition of BCR-ABL phosphorylation in human K562 cells at 1 to 100 nM by Western blot analysis; format: cell-based
# [2] = molecular target: T1, Bcr/Abl fusion protein (Homo sapiens); experiment: Inhibition of BCR-ABL in human K562 cells assessed as reduction in STAT5 phosphorylation at 1 to 100 nM by Western blot analysis; format: cell-based
# [3] = molecular target: T1, Bcr/Abl fusion protein (Homo sapiens); experiment: Inhibition of BCR-ABL in human KU812 cells assessed as reduction in STAT5 phosphorylation at 1 to 30 nM by Western blot analysis; format: cell-based
# KU812 cell line = experiment: Growth inhibition of human KU812 cells incubated for 2 days by CCK8 assay; format: functional, cell-based
# HL-60 = experiment: Growth inhibition of human HL60 cells incubated for 2 days by CCK8 assay; format: functional, cell-based
# HEK293 = experiment: Growth inhibition of human HEK293 cells incubated for 2 days by CCK8 assay; format: cell-based; conditions: hek293, 48 h
# K562 [4] = experiment: Effect on BCR-ABL protein levels in human K562 cells at 100 nM up to 24 hrs by Western blot analysis; format: ADME, cell-based; conditions: k562, 24 h, 0.1 µM
# [5] = molecular target: T2, von Hippel-Lindau disease tumor suppressor/Tyrosine-protein kinase ABL1/Breakpoint cluster region protein (Homo sapiens, UniProt P00519+P11274+P40337); experiment: Protac activity against VHL/BCR-ABL in human K562 cells assessed as induction of BCR-ABL degradation pre-treated with 4 uM VHL1 for 2 hrs followed by compound addition at 100 nM and further incubated for 8 hrs by Western blot analysis; format: cell-based
# [6] = molecular target: T2, von Hippel-Lindau disease tumor suppressor/Tyrosine-protein kinase ABL1/Breakpoint cluster region protein; experiment: Protac activity against VHL/BCR-ABL in human K562 cells assessed as induction of BCR-ABL degradation pre-treated with 100 nM dasatinib for 2 hrs followed by compound addition at 100 nM and further incubated for 8 hrs by Western blot analysis; format: cell-based
# [7] = molecular target: T2, von Hippel-Lindau disease tumor suppressor/Tyrosine-protein kinase ABL1/Breakpoint cluster region protein; experiment: Protac activity against VHL/BCR-ABL in human K562 cells assessed as induction of BCR-ABL degradation pre-treated with 2.5 uM proteasome inhibitor MG132 for 2 hrs followed by compound addition at 100 nM and further incubated for 8 hrs by Western blot analysis; format: cell-based
# [8] = molecular target: T2, von Hippel-Lindau disease tumor suppressor/Tyrosine-protein kinase ABL1/Breakpoint cluster region protein; experiment: Protac activity against VHL/BCR-ABL in human K562 cell lysates assessed as induction of pull down of endogenous BCR-ABL at 10 to 100 nM in presence of excess immobilized GST-VBC bait by GST-pull down assay; format: subcellular; conditions: Lysate
# [9] = molecular target: Tyrosine-protein kinase ABL1 (Homo sapiens) (UniProt P00519); experiment: Binding affinity to human non-phosphorylated ABL1 (S229 to K512 residues) expressed in mammalian expression system assessed as residual binding level at 10 uM by Kinomescan method relative to control
# [10] = Permeability in human Caco2 cells at 10 uM incubated for 120 mins by LC-MS/MS analysis; format: ADME, cell-based; conditions: caco-2, 2 h
# K562 [11] = experiment: Effect on YES protein level in human K562 cells at 100 nM incubated for 16 hrs by multiplexed tandem mass spectrometry; format: ADME, cell-based; conditions: k562, 16 h, 0.1 µM
# [12] = molecular target: T2, von Hippel-Lindau disease tumor suppressor/Tyrosine-protein kinase ABL1/Breakpoint cluster region protein; experiment: Protac activity against VHL/BCR-ABL in human K562 cells assessed as reduction in BCR-ABL protein levels at 1 to 100 nM incubated for 16 hrs by Western blot analysis; format: cell-based
# [13] = molecular target: von Hippel-Lindau disease tumor suppressor/Tyrosine-protein kinase ABL1 (Homo sapiens) (UniProt P00519+P40337); experiment: Protac activity against VHL/c-ABL in human K562 cells assessed as reduction in c-ABL protein levels at 1 to 100 nM incubated for 16 hrs by Western blot analysis; format: cell-based
# [14] = molecular target: von Hippel-Lindau disease tumor suppressor/Ephrin type-B receptor 4 (Homo sapiens) (UniProt P54760+P40337); experiment: Protac activity against VHL/EPHB4 in human K562 cells assessed as reduction in EPHB4 protein levels at 1 to 100 nM incubated for 16 hrs by Western blot analysis; format: cell-based
# [15] = molecular target: von Hippel-Lindau disease tumor suppressor/Receptor-interacting serine/threonine-protein kinase 2 (Homo sapiens) (UniProt O43353+P40337); experiment: Protac activity against VHL/RIPK2 in human K562 cells assessed as reduction in RIPK2 protein levels at 1 to 100 nM incubated for 16 hrs by Western blot analysis; format: cell-based
# [16] = molecular target: von Hippel-Lindau disease tumor suppressor/Mast/stem cell growth factor receptor Kit (Homo sapiens) (UniProt P10721+P40337); experiment: Protac activity against VHL/KIT in human K562 cells assessed as reduction in Kit protein levels at 1 to 100 nM incubated for 16 hrs by Western blot analysis; format: cell-based
# K562 [17] = experiment: Antitumor activity against luciferse expressing human K562 cells xenografted in NOD/SCID mouse assessed as attenuation of tumor progression at 5 to 15 mg/kg, ip QD for 12 days by serial volumetric analysis; format: functional, organism-based
# K562 [18] = experiment: Antitumor activity against luciferse expressing human K562 cells xenografted in NOD/SCID mouse assessed as reduction in tumor burden at 5 to 15 mg/kg, ip QD for 12 days by bioluminescence imaging analysis; format: functional, organism-based
# [19] = molecular target: T2, von Hippel-Lindau disease tumor suppressor/Tyrosine-protein kinase ABL1/Breakpoint cluster region protein; experiment: Protac activity against VHL/BCR-ABL (unknown origin) expressed in human U937 cells assessed as induction of BCR-ABL degradation incubated for 16 hrs by Western blot analysis; format: cell-based
# [20] = tested on: von Hippel-Lindau disease tumor suppressor/Tyrosine-protein kinase ABL1/Breakpoint cluster region protein (Homo sapiens), P00519+P11274+P40337 [V299L]; experiment: Protac activity against VHL/BCR-ABL V299L mutant (unknown origin) expressed in human U937 cells assessed as induction of BCR-ABL degradation incubated for 16 hrs by Western blot analysis; format: cell-based
# [21] = tested on: von Hippel-Lindau disease tumor suppressor/Tyrosine-protein kinase ABL1/Breakpoint cluster region protein (Homo sapiens), P00519+P11274+P40337 [F317L]; experiment: Protac activity against VHL/BCR-ABL F317L mutant (unknown origin) expressed in human U937 cells assessed as induction of BCR-ABL degradation incubated for 16 hrs by Western blot analysis; format: cell-based
# [22] = tested on: von Hippel-Lindau disease tumor suppressor/Tyrosine-protein kinase ABL1/Breakpoint cluster region protein (Homo sapiens), P00519+P11274+P40337 [F317V]; experiment: Protac activity against VHL/BCR-ABL F317V mutant (unknown origin) expressed in human U937 cells assessed as induction of BCR-ABL degradation incubated for 16 hrs by Western blot analysis; format: cell-based
# [23] = tested on: von Hippel-Lindau disease tumor suppressor/Tyrosine-protein kinase ABL1/Breakpoint cluster region protein (Homo sapiens), P00519+P11274+P40337 [T315A]; experiment: Protac activity against VHL/BCR-ABL T315A mutant (unknown origin) expressed in human U937 cells assessed as induction of BCR-ABL degradation incubated for 16 hrs by Western blot analysis; format: cell-based
# [24] = molecular target: von Hippel-Lindau disease tumor suppressor/Tyrosine-protein kinase ABL2 (Homo sapiens) (UniProt P42684); experiment: Protac activity against VHL/BCR-ABL in human K562 cells assessed as reduction in ABL2 protein levels at 100 nM incubated for 16 hrs by multiplexed tandem mass spectrometry
# T1 sequence (P00519 whole entry, looked up, the tested form may be a part): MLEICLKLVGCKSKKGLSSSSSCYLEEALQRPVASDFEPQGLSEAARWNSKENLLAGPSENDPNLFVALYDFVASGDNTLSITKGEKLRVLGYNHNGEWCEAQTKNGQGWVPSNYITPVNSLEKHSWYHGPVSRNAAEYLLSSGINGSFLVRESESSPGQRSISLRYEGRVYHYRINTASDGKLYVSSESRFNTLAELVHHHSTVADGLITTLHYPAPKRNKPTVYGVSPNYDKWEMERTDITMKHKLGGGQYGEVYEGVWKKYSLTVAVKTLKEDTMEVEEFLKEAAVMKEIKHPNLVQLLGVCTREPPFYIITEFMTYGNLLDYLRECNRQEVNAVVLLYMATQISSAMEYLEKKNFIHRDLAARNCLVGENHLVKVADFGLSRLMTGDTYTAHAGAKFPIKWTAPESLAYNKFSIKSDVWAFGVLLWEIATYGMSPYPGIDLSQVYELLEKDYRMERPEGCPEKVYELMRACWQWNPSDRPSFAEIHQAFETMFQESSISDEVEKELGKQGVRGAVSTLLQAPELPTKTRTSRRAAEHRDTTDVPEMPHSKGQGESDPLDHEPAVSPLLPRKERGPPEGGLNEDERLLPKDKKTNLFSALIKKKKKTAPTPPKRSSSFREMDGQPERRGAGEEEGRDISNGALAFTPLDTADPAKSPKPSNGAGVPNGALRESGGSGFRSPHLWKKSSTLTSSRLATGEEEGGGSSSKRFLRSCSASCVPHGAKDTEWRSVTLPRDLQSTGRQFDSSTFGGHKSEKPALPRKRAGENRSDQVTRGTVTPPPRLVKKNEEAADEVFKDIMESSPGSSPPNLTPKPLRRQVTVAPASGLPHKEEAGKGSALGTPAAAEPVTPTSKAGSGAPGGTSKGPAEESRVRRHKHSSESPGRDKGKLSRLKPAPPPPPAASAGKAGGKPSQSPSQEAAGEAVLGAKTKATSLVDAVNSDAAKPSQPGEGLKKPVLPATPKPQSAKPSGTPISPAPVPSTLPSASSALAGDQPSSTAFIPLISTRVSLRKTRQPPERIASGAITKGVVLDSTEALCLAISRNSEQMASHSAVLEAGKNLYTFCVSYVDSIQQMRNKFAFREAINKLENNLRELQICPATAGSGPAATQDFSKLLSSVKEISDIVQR
# T1 sequence (P11274 whole entry, looked up, the tested form may be a part): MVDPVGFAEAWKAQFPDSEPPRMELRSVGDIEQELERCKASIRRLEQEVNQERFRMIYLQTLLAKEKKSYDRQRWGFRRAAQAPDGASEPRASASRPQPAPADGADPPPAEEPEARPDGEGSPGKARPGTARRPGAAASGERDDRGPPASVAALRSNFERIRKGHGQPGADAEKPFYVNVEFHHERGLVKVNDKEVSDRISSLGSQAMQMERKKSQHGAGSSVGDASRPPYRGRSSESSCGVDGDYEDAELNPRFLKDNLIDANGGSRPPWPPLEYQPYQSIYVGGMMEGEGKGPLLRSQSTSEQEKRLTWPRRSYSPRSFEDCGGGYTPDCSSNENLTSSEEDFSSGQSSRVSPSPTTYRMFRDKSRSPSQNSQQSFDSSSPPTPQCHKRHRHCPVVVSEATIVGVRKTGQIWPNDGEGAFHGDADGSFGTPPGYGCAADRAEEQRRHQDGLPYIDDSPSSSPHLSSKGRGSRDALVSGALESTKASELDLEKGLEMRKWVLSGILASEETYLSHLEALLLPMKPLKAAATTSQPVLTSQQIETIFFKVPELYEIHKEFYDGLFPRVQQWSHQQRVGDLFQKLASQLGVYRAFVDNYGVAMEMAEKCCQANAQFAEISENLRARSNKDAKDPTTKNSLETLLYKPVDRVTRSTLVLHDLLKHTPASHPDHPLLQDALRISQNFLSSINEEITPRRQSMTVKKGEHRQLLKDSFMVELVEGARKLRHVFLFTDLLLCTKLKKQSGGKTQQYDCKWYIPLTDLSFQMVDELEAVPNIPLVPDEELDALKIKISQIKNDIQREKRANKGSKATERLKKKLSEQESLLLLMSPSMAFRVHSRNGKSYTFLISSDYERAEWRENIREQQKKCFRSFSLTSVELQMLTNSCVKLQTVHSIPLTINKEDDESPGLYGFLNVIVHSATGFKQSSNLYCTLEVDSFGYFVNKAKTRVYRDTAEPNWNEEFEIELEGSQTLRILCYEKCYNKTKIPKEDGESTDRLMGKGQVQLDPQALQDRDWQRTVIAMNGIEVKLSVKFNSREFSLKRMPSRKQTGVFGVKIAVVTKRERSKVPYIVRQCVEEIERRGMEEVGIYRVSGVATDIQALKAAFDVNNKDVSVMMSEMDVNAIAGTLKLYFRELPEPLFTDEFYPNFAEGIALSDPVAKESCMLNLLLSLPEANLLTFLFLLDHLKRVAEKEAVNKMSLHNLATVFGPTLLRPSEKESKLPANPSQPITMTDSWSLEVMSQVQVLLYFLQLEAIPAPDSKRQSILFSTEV
# T2 sequence (P00519 whole entry, looked up): as the sequence (P00519 whole entry, looked up, the tested form may be a part) above
# T2 sequence (P11274 whole entry, looked up): as the sequence (P11274 whole entry, looked up, the tested form may be a part) above
# T2 sequence (P40337 whole entry, looked up): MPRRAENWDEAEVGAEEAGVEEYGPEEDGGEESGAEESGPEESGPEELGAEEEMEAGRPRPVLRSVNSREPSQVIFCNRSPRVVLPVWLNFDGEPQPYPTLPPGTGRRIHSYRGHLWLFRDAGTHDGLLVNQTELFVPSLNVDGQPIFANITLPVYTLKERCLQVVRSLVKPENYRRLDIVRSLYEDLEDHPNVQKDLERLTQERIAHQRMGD
structure (smiles),measurement,setting,value
Cc1nc(Nc2ncc(C(=O)Nc3c(C)cccc3Cl)s2)cc(N2CCN(C(=O)CCCCCCC(=O)N[C@H](C(=O)N3C[C@H](O)C[C@H]3C(=O)NCc3ccc(-c4scnc4C)cc3)C(C)(C)C)CC2)n1,inhibition,[1],Active
same,inhibition,[2],Active
same,inhibition,[3],Active
same,growth inhibition (GI),KU812 cell line,Active
same,growth inhibition (GI),HL-60,inactive
same,growth inhibition (GI),HEK293,Non-Toxic
same,Activity,K562 [4],Non-Toxic
same,Activity,[5],inactive
same,Activity,[6],inactive
same,Activity,[7],inactive
same,Activity,[8],Dose-dependent effect
same,Activity,[9],Active
same,permeability,[10],Permeable
same,Activity,K562 [11],Non-Toxic
same,Activity,[12],Dose-dependent effect
same,Activity,[13],Dose-dependent effect
same,Activity,[14],Dose-dependent effect
same,Activity,[15],Dose-dependent effect
same,Activity,[16],inactive
same,Activity,K562 [17],Dose-dependent effect
same,Activity,K562 [18],Active
same,Activity,[19],Dose-dependent effect
same,Activity,[20],Dose-dependent effect
same,Activity,[21],Dose-dependent effect
same,Activity,[22],Dose-dependent effect
same,Activity,[23],inactive
same,Activity,[24],Active
